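Dose response: 5 concentrations. Exposure: 48 h. Format: 96-well plates. Endpoint: linear interpolation; highest concentration if not reached. At the GI50, growth is halved.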 Active and inactive are the calls of the source. Cut-off read from the data, not from the text of the source: active = GI50 up to about 1.1 µM and inactive = higher.
How the values were obtained:
Experiment in all cases: DTP human tumour cell line panel, 48 h
SK-MEL-2 = system: SK-MEL-2
SK-MEL-28 = system: SK-MEL-28
U-251 = system: U-251
SNB-19 = system: SNB-19
OVCAR-5 = system: OVCAR-5
SF-295 = system: SF-295
M14 = system: M14
NCI-H522 = system: NCI-H522
EKVX = system: EKVX
SW-620 = system: SW-620
CCRF-CEM = system: CCRF-CEM
NCI-H460 = system: NCI-H460
MOLT-4 = system: MOLT-4
UACC-257 = system: UACC-257
OVCAR-8 = system: OVCAR-8
NCI-H23 = system: NCI-H23
LOX IMVI = system: LOX IMVI
NCI/ADR-RES = system: NCI/ADR-RES
K562 = system: K562
HCT-116 = system: HCT-116

Row | Structure (SMILES) | GI50 (SK-MEL-2) | GI50 (SK-MEL-28) | GI50 (U-251) | GI50 (SNB-19) | GI50 (OVCAR-5) | GI50 (SF-295) | GI50 (M14) | GI50 (NCI-H522) | GI50 (EKVX) | GI50 (SW-620) | GI50 (CCRF-CEM) | GI50 (NCI-H460) | GI50 (MOLT-4) | GI50 (UACC-257) | GI50 (OVCAR-8) | GI50 (NCI-H23) | GI50 (LOX IMVI) | GI50 (NCI/ADR-RES) | GI50 (K562) | GI50 (HCT-116)
1 | CCCC[C@H]1C(=O)O[C@H](C)[C@H](NC(=O)c2cccc(NC=O)c2O)C(=O)O[C@@H](C)[C@@H]1OC(=O)CC(C)C [ANTIMYCIN A3] | 1.97 µM (inactive) | 6.73 µM (inactive) | 0.149 µM (active) | 2.91 µM (inactive) | 17 µM (inactive) | < 0.0421 µM (active) | 14.9 µM (inactive) | 5.93 µM (inactive) | 0.321 µM (active) | 8.18 µM (inactive) | < 0.0229 µM (active) | < 0.01 µM (active) | < 0.01 µM (active) | 0.04 µM (active) | 2.05 µM (inactive) | 0.294 µM (active) | < 0.01 µM (active) | 5.32 µM (inactive) | < 0.0123 µM (active) | < 0.01 µM (active)
2 | O=C1C=CC(=O)C(CNc2ccc(C(=O)OC34CC5CC(CC(C5)C3)C4)cc2)=C1 | 15.1 µM (inactive) | 4.69 µM (inactive) | 4.06 µM (inactive) | 12.8 µM (inactive) | 15.1 µM (inactive) | 16.6 µM (inactive) | 12.6 µM (inactive) | 0.776 µM (active) | 6.53 µM (inactive) | 10.5 µM (inactive) | 1.34 µM (inactive) | 15.2 µM (inactive) | 1.51 µM (inactive) | 6.04 µM (inactive) | 5.11 µM (inactive) | 6.67 µM (inactive) | 4.57 µM (inactive) | 3.44 µM (inactive) | 4.52 µM (inactive) | 10 µM (inactive)
3 | COC(=O)[C@@H](NC(=O)c1ccc(CNC(=O)/C(C)=C/c2ccccc2)cc1)C(C)C | 51.1 µM (inactive) | 40.8 µM (inactive) | > 100 µM (inactive) | > 100 µM (inactive) | > 100 µM (inactive) | > 100 µM (inactive) | 61.2 µM (inactive) | 83.9 µM (inactive) | 35.4 µM (inactive) | > 100 µM (inactive) | 4.71 µM (inactive) | 65 µM (inactive) | 78.2 µM (inactive) | 14.2 µM (inactive) | > 100 µM (inactive) | > 100 µM (inactive) | 59.2 µM (inactive) | > 100 µM (inactive) | > 100 µM (inactive) | > 100 µM (inactive)
